# ± gives the expanded uncertainty stated by the source.
# How the values were obtained:
# [1] = Molar enthalpy of transition or fusion; settings: Crystal; DSC
# [2] = Crystal; DTA
smiles,measurement,setting,value
C[C@@H]1CC[C@H]2[C@@H](C)C(=O)O[C@@H]3O[C@@]4(C)CC[C@@H]1[C@]32OO4 [artemisinin],Molar enthalpy of transition or fusion,[1],5.81 ± 0.225 kcal/mol
same,Triple point temperature,[2],429.6 ± 1.1 K
